Experimental findings from US20060211698A1, “Bicyclic heteroaryl derivatives for treating viruses” (Genelabs, Inc., priority 2005, published 2006) are described below.

Each structure is given as a SMILES string.

As a reminder, the inhibition is the relative decrease from the control value, in per cent.

In this assay the target is T1, HCV-NS5b (Hepatitis C virus genotype 1b, UniProt Q9WMX2).
T1 construct: The cloned fragment was missing the C terminus 21 amino acid residues; (His)6 (C); made in house; host or cells: XL-1 cells (E. coli)
Description: HCV-NS5b Enzyme Assay. The assay is classed as biochemical. Particulars: 1 μM test compound; incorporation of [3H]-UTP, 37° C., 2 hours. An excerpt:
The coding sequence of NS5b protein was cloned by PCR from pFKI389luc/NS3-3′/ET as described by Lohmann, V., et al. (1999) Science 285, 110-113 using the following primers: • […] (SEQ. ID. NO. 1) • […] (SEQ. ID. NO. 2)
The cloned fragment was missing the C terminus 21 amino acid residues. The cloned fragment is inserted into an IPTG-inducible expression plasmid that provides an epitope tag (His)6 at the carboxy terminus of the protein.
The recombinant enzyme was expressed in XL-1 cells and after induction of expression, the protein was purified using affinity chromatography on a nickel-NTA column. Storage condition is 10 mM Tris-HCl pH 7.5, 50 mM NaCl, 0.1 mM EDTA, 1 mM DTT, 20% glycerol at −20° C.
The polymerase activity was assayed by measuring incorporation of radiolabeled UTP into a RNA product using a biotinylated, heteropolymeric template, which includes a portion of the HCV genome. Typically, the assay mixture […] contains 10 mM Tris-HCl (pH 7.5), 5 mM MgCl2, 0.2 mM EDTA, 10 mM KCl, 1 unit/μL RNAsin. 1 mM DTT, 10 μM each of NTP, including [^3H]-UTP, and 10 ng/μL biotinylated heteropolymeric template. 20× test compound in 2 μl's was then added as a 100% DMSO solution to achieve a final DMSO concentration of 5%. For IC50 determination a 10-point dose response was used. The compounds were serial diluted 2-fold […]. Typically for IC50's, compounds were tested starting at 50 uM or 2 μm depending on the potency. Reactions were started with addition of 10×NS5B in 4 μl's and allowed to incubate at 37° C. for 2 hours. Reactions were quenched with 8 μL of 100 mM EDTA and reaction mixtures (30 μL) were transferred to streptavidin-coated scintillation proximity microtiter plates (FlashPlates) and incubated at 4° C. overnight. Incorporation of radioactivity was determined by scintillation counting (cpm). The % Inhibition at a particular concentration was determined using the following equation, % Inhibition=100−[100*(cpm with inhibitor−bg)/(cpm with no inhibitor−bg)] where bg was the background with no enzyme.
For `COc1ccc(-c2ccc(Cl)cc2)c(-c2ccc3cc(-c4[nH]c5cc(C(=O)O)ccc5c4C4CCCCC4)ccc3n2)c1` [Compound 200, 2-[2-(4′-chloro-4-methoxy-biphenyl-2-yl)-quinolin-6-yl]-3-cyclohexyl-1H-indole-6-carboxylic acid], testing at 1 µM gave an inhibition of 96.2%.

With `COC(=O)c1ccc2c(C3CCCCC3)c(-c3ccc4nc(-c5cc(OC)ccc5-c5ccc(Cl)cc5)ccc4c3)n(CC(=O)O)c2c1` [Compound 201, 1-carboxymethyl-2-[2-(4′-chloro-4-methoxy-biphenyl-2-yl)-quinolin-6-yl]-3-cyclohexyl-1H-indole-6-carboxylic acid methyl ester], the inhibition at 1 µM stood at 77.7%.

For `COc1ccc(-c2ccc(Cl)cc2)c(-c2ccc3cc(-c4c(C5CCCCC5)c5ccc(C(=O)O)cc5n4CC(=O)O)ccc3n2)c1` [Compound 202, 1-carboxymethyl-2-[2-(4′-chloro-4-methoxy-biphenyl-2-yl)-quinolin-6-yl]-3-cyclohexyl-1H-indole-6-carboxylic acid], at 1 µM the inhibition was 98.3%.

With `COc1ccc(-c2ccc(Cl)cc2)c(-c2ccc3cc(-c4c(C5CCCCC5)c5ccc(C(=O)O)cc5n4CC(=O)N4CCOCC4)ccc3n2)c1` [Compound 203, 1-[N-morpholinocarbonylmethyl]-2-[2-(4′-chloro-4-methoxy-biphen-2-yl)-quinolin-6-yl]-3-cyclohexyl-1H-indole-6-carboxylic acid], the inhibition at 1 µM is 98.7%.

On to `COc1ccc(-c2ccc(Cl)cc2)c(-c2ccc3cc(-c4c(C5CCCCC5)c5ccc(C(=O)O)cc5n4CC(=O)N4CCNCC4)ccc3n2)c1` [Compound 204, 1-[N-piperazinylcarbonylmethyl]-2-[2-(4′-chloro-4-methoxy-biphen-2-yl)-quinolin-6-yl]-3-cyclohexyl-1H-indole-6-carboxylic acid], for which at 1 µM the inhibition was 95.9%.

In the case of `COc1ccc(-c2ccc(Cl)cc2)c(-c2ccc3cc(-c4c(C5CCCCC5)c5ccc(C(=O)O)cc5n4CC(=O)N4CCC(N5CCCC5)CC4)ccc3n2)c1` [Compound 205, 1-[(4-pyrrolidin-1-yl-piperidin-1-yl)carbonylmethyl]-2-[2-(4′-chloro-4-methoxy-biphen-2-yl)-quinolin-6-yl]-3-cyclohexyl-1H-indole-6-carboxylic acid], the inhibition at 1 µM was 97%.

For the compound `COc1ccc(-c2ccc(Cl)cc2)c(-c2ccc3cc(-c4c(C5CCCCC5)c5ccc(C(=O)O)cc5n4CC(=O)N(C)C)ccc3n2)c1` [Compound 206, 1-[N,N-dimethylaminocarbonyl-methyl]-2-[2-(4′-chloro-4-methoxy-biphen-2-yl)-quinolin-6-yl]-3-cyclohexyl-1H-indole-6carboxylic acid], the inhibition at 1 µM was found to be 99%.

Consider `NC(=O)c1cc(-c2ccc3cc(-c4c(C5CCCCC5)c5ccc(C(=O)O)cc5n4CC(=O)N4CCOCC4)ccc3n2)ccc1O` [Compound 207, 1-[N-morpholinocarbonylmethyl]-2-[2-(3-amido-4-hydroxy-phenyl)-quinolin-6-yl]-3-cyclohexyl-1H-indole-6-carboxylic acid], for which 1 µM produced 95.7% inhibition.

`NC(=O)c1cc(-c2ccc3cc(-c4c(C5CCCCC5)c5ccc(C(=O)O)cc5n4CC(=O)O)ccc3n2)ccc1O` [Compound 208, 1-carboxylmethyl-2-[2-(3-Carbamoyl-4-hydroxy-phenyl)-quinolin-6-yl]-3-cyclohexyl-1H-indole-6-carboxylic acid] came in with an inhibition at 1 µM of 84.5%.

For the compound `O=C(O)c1ccc2c(C3CCCCC3)c(-c3ccc4nc(-c5ccc(-n6ccnc6)cc5)ccc4c3)n(CC(=O)N3CCOCC3)c2c1` [Compound 209, 1-[N-morpholinocarbonylmethyl]-2-[2-(4-(1H-imidazolyl)phenyl)-quinolin-6-yl]-3-cyclohexyl-1H-indole-6-carboxylic acid], the “% inhibition @ 1 μM” value came to 98.5%.

`Cc1nc(C)c(-c2ccc3cc(-c4c(C5CCCCC5)c5ccc(C(=O)O)cc5n4CC(=O)N4CCOCC4)ccc3n2)s1` [Compound 210, 1-[N-morpholinocarbonylmethyl]-2-[2-(2,4-dimethylthiazol-5-yl)-quinolin-6-yl]-3-cyclohexyl-1H-indole-6-carboxylic acid]: the inhibition at 1 µM was 97.3%.

Take `Cc1nc(C)c(-c2ccc3cc(-c4c(C5CCCCC5)c5ccc(C(=O)O)cc5n4CC(=O)O)ccc3n2)s1` [Compound 211, 1-[carboxymethyl]-2-[2-(2,4-dimethylthiazol-5-yl)-quinolin-6-yl]-3-cyclohexyl-1H-indole-6-carboxylic acid]: 1 µM produced 91% inhibition.

On to `Cc1nc(C)c(-c2ccc3cc(-c4c(C5CCCCC5)c5ccc(C(=O)O)cc5n4CC(=O)N(C)C)ccc3n2)s1` [Compound 212, 1-[N,N-dimethylaminocarbonyl-methyl]-2-[2-(2,4-dimethylthiazol-5-yl)-quinolin-6-yl]-3-cyclohexyl-1H-indole-6-carboxylic acid], for which at 1 µM the inhibition was 96.8%.

As for `Cc1nc(C)c(-c2ccc3cc(-c4c(C5CCCCC5)c5ccc(C(=O)O)cc5n4CC(=O)NCC(=O)O)ccc3n2)s1` [Compound 213, 1-[(N-carboxymethycarbamoyl)-methyl]-[2-(2,4-dimethyl-thiazol-5-yl)-quinolin-6-yl]-3-cyclohexyl-1H-indole-6-carboxylic acid], the “% inhibition @ 1 μM” value came out at 92.1%.

`Cc1nc(C)c(-c2ccc3cc(-c4c(C5CCCCC5)c5ccc(C(=O)O)cc5n4CC(=O)N4CCC(N5CCCC5)CC4)ccc3n2)s1` [Compound 214, 1-[2-oxo-2-(4-pyrrolidin-1-yl-piperidin-1-yl)-ethyl]-2-[2-(2,4-dimethylthiazol-5-yl)-quinolin-6-yl]-3-cyclohexyl-1H-indole-6-carboxylic acid]: the inhibition at 1 µM was 92.1%.

`Cc1nc(C)c(-c2ccc3cc(-c4c(C5CCCCC5)c5ccc(C(=O)O)cc5n4CC(=O)NCCO)ccc3n2)s1` [Compound 215, 1-[(2-hydroxyethylcarbamoyl)-methyl]-2-[2-(2,4-dimethyl-thiazol-5-yl)-quinolin-6-yl]-3-cyclohexyl-1H-indole-6-carboxylic acid] yielded an inhibition at 1 µM of 94.3%.

As for `Cc1nc(C)c(-c2nc3ccc(-c4cc5ccc(C(=O)O)cc5n4CC(=O)N4CCCCC4)cc3cc2C2CCCCC2)s1` [Compound 216, 1-(2-oxo-2-piperidin-1-yl-ethyl)-2-[2-(2,4-dimethylthiazol-5-yl)-3-cyclohexylquinolin-6-yl]-1H-indole-6-carboxylic acid], the inhibition at 1 µM worked out at 98.8%.

For the compound `O=C(O)c1ccc2c(C3CCCCC3)c(-c3ccc4nc(-c5ccccn5)ccc4c3)n(CC(=O)N3CCOCC3)c2c1` [Compound 217, 1-[N-morpholinocarbonylmethyl]-2-[2-(pyrid-2-yl)-quinolin-6-yl]-3-cyclohexyl-1H-indole-6-carboxylic acid], the “% inhibition @ 1 μM” value is given as 98.0%.

Turning to `O=C(O)c1ccc2c(C3CCCCC3)c(-c3ccc4nc(-c5cnccn5)ccc4c3)n(CC(=O)N3CCOCC3)c2c1` [Compound 218, 1-[N-morpholinocarbonylmethyl]-2-[2-(pyrazin-2-yl)-quinolin-6-yl]-3-cyclohexyl-1H-indole-6-carboxylic acid], the “% inhibition @ 1 μM” value is 96.2%.

In the case of `O=C(O)c1ccc2c(C3CCCCC3)c(-c3ccc4nc(-c5ccc[nH]5)ccc4c3)n(CC(=O)N3CCOCC3)c2c1` [Compound 219, 1-[N-morpholinocarbonylmethyl]-2-[2-(pyrrol-2-yl)-quinolin-6-yl]-3-cyclohexyl-1H-indole-6-carboxylic acid], the “% inhibition @ 1 μM” value turned out to be 96.0%.

As for `O=C(O)c1ccc2c(C3CCCCC3)c(-c3ccc4nc(-c5ccccc5)ccc4c3)n(CC(=O)N3CCOCC3)c2c1` [Compound 220, 1-[N-morpholinocarbonylmethyl]-2-[2-phenylquinolin-6-yl]-3-cyclohexyl-1H-indole-6-carboxylic acid], the “% inhibition @ 1 μM” value was found to be 96.4%.

`COc1cccc(-c2ccc3cc(-c4c(C5CCCCC5)c5ccc(C(=O)O)cc5n4CC(=O)N4CCOCC4)ccc3n2)c1` [Compound 221, 3-Cyclohexyl-2-[2-(3-methoxy-phenyl)-quinolin-6-yl]-1-(2-morpholin-4-yl-2-oxo-ethyl)-1H-indole-6-carboxylic acid] had an inhibition at 1 µM of 99.6%.

Take `O=C(O)c1ccc2c(C3CCCCC3)c(-c3ccc4nc(-c5ccco5)ccc4c3)n(CC(=O)N3CCOCC3)c2c1` [Compound 222, 1-[N-morpholinocarbonylmethyl]-2-(2-furan-2-yl-quinolin-6-yl)-3-cyclohexyl-1H-indole-6-carboxylic acid]: the “% inhibition @ 1 μM” value came to 92.3%.

On to `Cc1ccc(-c2ccc3cc(-c4c(C5CCCCC5)c5ccc(C(=O)O)cc5n4CC(=O)N4CCOCC4)ccc3n2)o1` [Compound 223], for which the “% inhibition @ 1 μM” value is given as 95.1%.
